Assay results from patent US7138361B2, “Herbicidal heterocycles” (E. I. du Pont de Nemours and Company, priority 2000, dated 2006).

How the values were obtained:
Assay type in all cases: in vivo
[1] = system: Surinam grass (Brachiaria decumbens); experiment: Test B preemergence
Procedure, shortened: (§1)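 Ratings on a 0 to 100 visual scale (100 complete control) compare treated plants with controls 13 to 15 days after application. Treatments were pre- or postemergence sprays of compound in non-phytotoxic solvent with surfactant.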

corn (Zea mays) [2] = experiment: Test B preemergence
Procedure, shortened: as §1

[3] = system: giant foxtail (Setaria faberii); experiment: Test B preemergence
Procedure, shortened: as §1

rice (Oryza saliva) [4] = experiment: Test B preemergence
Procedure, shortened: as §1

[5] = system: pigweed (Amaranthus retroflexus); experiment: Test B preemergence
Procedure, shortened: as §1

[6] = system: velvetleaf (Abutilon theophrasti); experiment: Test B preemergence
Procedure, shortened: as §1

[7] = system: crabgrass (Digitaria sanguinalis); experiment: Test B preemergence
Procedure, shortened: as §1

[8] = system: barnyardgrass (Echinochloa crus-galli); experiment: Test B preemergence
Procedure, shortened: as §1

[9] = system: lambsquarters (Chenopodium album); experiment: Test B preemergence
Procedure, shortened: as §1

[10] = system: cocklebur (Xanthium strumarium); experiment: Test B preemergence
Procedure, shortened: as §1

[11] = system: morning glory (Ipomoea hederacea); experiment: Test B preemergence
Procedure, shortened: as §1

rice (Oryza saliva) [12] = experiment: Test C flooded paddy test; conditions: for Rice plant response rating: Flooded Paddy, scale 0 to 100, 0 no effect, 100 complete control; for Plant response rating, Rice: flooded paddy test, scale 0 to 100 (0 no effect, 100 complete control)
Procedure, shortened: (§2)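 Each species was cultivated to 2 leaves in flooded paddy pots, then treated. After a greenhouse period of 12–14 days, the plants were scored visually relative to controls from 0 (no effect) to 100 (complete control).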

[13] = system: barnyardgrass (Echinochloa crus-galli); experiment: Test C flooded paddy test; conditions: for Barnyardgrass plant response rating: Flooded Paddy, scale 0 to 100, 0 no effect, 100 complete control; for Plant response rating, Barnyardgrass: flooded paddy test, scale 0 to 100 (0 no effect, 100 complete control)
Procedure, shortened: as §2

[14] = system: smallflower flatsedge (Cyperus difformis); experiment: Test C flooded paddy test; conditions: for Flatsedge plant response rating: Flooded Paddy, scale 0 to 100, 0 no effect, 100 complete control; for Plant response rating, Flatsedge: flooded paddy test, scale 0 to 100 (0 no effect, 100 complete control)
Procedure, shortened: as §2

[15] = system: duck salad (Heteranthera limosa); experiment: Test C flooded paddy test; conditions: for Ducksalad plant response rating: Flooded Paddy, scale 0 to 100, 0 no effect, 100 complete control; for Plant response rating, Ducksalad: flooded paddy test, scale 0 to 100 (0 no effect, 100 complete control)
Procedure, shortened: as §2

[16] = system: Surinam grass (Brachiaria decumbens); experiment: Test B postemergence
Procedure, shortened: as §1

corn (Zea mays) [17] = experiment: Test B postemergence
Procedure, shortened: as §1

[18] = system: giant foxtail (Setaria faberii); experiment: Test B postemergence; conditions: Rate 125 g/ha, scale 0 to 100, 0 no effect, 100 complete control
Procedure, shortened: as §1

[19] = system: pigweed (Amaranthus retroflexus); experiment: Test B postemergence; conditions: Rate 125 g/ha, scale 0 to 100, 0 no effect, 100 complete control
Procedure, shortened: as §1

[20] = system: velvetleaf (Abutilon theophrasti); experiment: Test B postemergence; conditions: Rate 125 g/ha, scale 0 to 100, 0 no effect, 100 complete control
Procedure, shortened: as §1

[21] = system: blackgrass (Alopecurus myosuroides); experiment: Test B postemergence
Procedure, shortened: as §1

[22] = system: crabgrass (Digitaria sanguinalis); experiment: Test B postemergence; conditions: Rate 125 g/ha, scale 0 to 100, 0 no effect, 100 complete control
Procedure, shortened: as §1

[23] = system: barnyardgrass (Echinochloa crus-galli); experiment: Test B postemergence
Procedure, shortened: as §1

wild oat (Avena fatua) = experiment: Test B postemergence; conditions: Rate 125 g/ha, scale 0 to 100, 0 no effect, 100 complete control
Procedure, shortened: as §1

[24] = system: wheat (Triticum aestivum); experiment: Test B postemergence; conditions: Rate 125 g/ha, scale 0 to 100, 0 no effect, 100 complete control
Procedure, shortened: as §1

[25] = system: lambsquarters (Chenopodium album); experiment: Test B postemergence; conditions: Rate 125 g/ha, scale 0 to 100, 0 no effect, 100 complete control
Procedure, shortened: as §1

[26] = system: cocklebur (Xanthium strumarium); experiment: Test B postemergence
Procedure, shortened: as §1

[27] = system: morning glory (Ipomoea hederacea); experiment: Test B postemergence; conditions: Rate 125 g/ha, scale 0 to 100, 0 no effect, 100 complete control
Procedure, shortened: as §1

[28] = Preemergence, Rate 500 g/ha, scale 0 to 100, 0 no effect, 100 complete control
[29] = preemergence, Rate 125 g/ha, scale of 0 to 100 where 0 is no effect and 100 is complete control, 13 to 15 days
[30] = Rate 125 g/ha, scale 0 to 100, 0 no effect, 100 complete control
[31] = Rate 500 g/ha, scale 0 to 100, 0 is no effect, 100 is complete control, 13 to 15 days

## CCOc1cccc(N2CCC(n3ccc(C(C)CC)n3)C2=O)c1 (centres unmarked) [Compound 126]
[1]; [28]
  Plant response rating, Surinam grass: 100
[1]; [29]
  Plant response rating, Surinam grass: 100
Corn (Zea mays) [2]; [28]
  Plant response rating, Corn: 50
Corn (Zea mays) [2]; [29]
  Plant response rating, Corn: 30
[3]; [28]
  Plant response rating, Foxtail, Giant: 100
[3]; [29]
  Plant response rating, Foxtail, Giant: 100
Rice (Oryza saliva) [4]; [28]
  Plant response rating, Rice: 100
Rice (Oryza saliva) [4]; [29]
  Plant response rating, Rice: 70
[5]; [28]
  Plant response rating, Pigweed: 100
[5]; [29]
  Plant response rating, Pigweed: 100
[6]; [28]
  Plant response rating, Velvetleaf: 60
[6]; [29]
  Plant response rating, Velvetleaf: 0
[7]; [28]
  Plant response rating, Crabgrass: 100
[7]; [29]
  Plant response rating, Crabgrass: 100
[8]; [28]
  Plant response rating, Barnyardgrass: 100
[8]; [29]
  Plant response rating, Barnyardgrass: 100
[9]; [28]
  Plant response rating, Lambsquarters: 100
[9]; [29]
  Plant response rating, Lambsquarters: 100
[10]; [28]
  Plant response rating, Cocklebur: 70
[10]; [29]
  Plant response rating, Cocklebur: 50
[11]; [28]
  Plant response rating, Morningglory: 100
[11]; [29]
  Plant response rating, Morningglory: 70
Rice (Oryza saliva) [12]; Rate 250 g/ha
  Rice plant response rating: 20
Rice (Oryza saliva) [12]; Rate 500 g/ha
  Rice plant response rating: 60
Rice (Oryza saliva) [12]; Rate 62 g/ha
  Plant response rating, Rice: 0
Rice (Oryza saliva) [12]; Rate 125 g/ha
  Plant response rating, Rice: 20
[13]; Rate 250 g/ha
  Barnyardgrass plant response rating: 100
[13]; Rate 500 g/ha
  Barnyardgrass plant response rating: 100
[13]; Rate 62 g/ha
  Plant response rating, Barnyardgrass: 35
[13]; Rate 125 g/ha
  Plant response rating, Barnyardgrass: 100
[14]; Rate 250 g/ha
  Flatsedge plant response rating: 100
[14]; Rate 500 g/ha
  Flatsedge plant response rating: 100
[14]; Rate 62 g/ha
  Plant response rating, Flatsedge: 100
[14]; Rate 125 g/ha
  Plant response rating, Flatsedge: 100
[15]; Rate 250 g/ha
  Ducksalad plant response rating: 100
[15]; Rate 500 g/ha
  Ducksalad plant response rating: 100
[15]; Rate 62 g/ha
  Plant response rating, Ducksalad: 60
[15]; Rate 125 g/ha
  Plant response rating, Ducksalad: 100
[16]; [30]
  Plant response rating, Surinam grass: 0
[16]; [31]
  Plant response rating, Surinam grass: 0
Corn (Zea mays) [17]; [30]
  Plant response rating, Corn: 0
Corn (Zea mays) [17]; [31]
  Plant response rating, Corn: 0
[18]
  Plant response rating, Foxtail, Giant: 0
[19]
  Plant response rating, Pigweed: 30
[20]
  Plant response rating, Velvetleaf: 0
[21]; [30]
  Plant response rating, Blackgrass: 0
[21]; [31]
  Plant response rating, Blackgrass: 0
[22]
  Plant response rating, Crabgrass: 0
[23]; [30]
  Plant response rating, Barnyardgrass: 0
[23]; [31]
  Plant response rating, Barnyardgrass: 80
Wild oat (Avena fatua)
  Plant response rating, Wild Oat: 0
[24]
  Plant response rating, Wheat: 0
[25]
  Plant response rating, Lambsquarters: 100
[26]; [30]
  Plant response rating, Cocklebur: 0
[26]; [31]
  Plant response rating, Cocklebur: 70
[27]
  Plant response rating, Morningglory: 0
